In this assay the test system is Acinetobacter baumannii ATCC17961. Put plainly: Antimicrobial susceptibility testing: 90% growth inhibitory concentration (IC90) determination, Iso-Sensitest broth. The note with it: Acinetobacter baumannii. It counts as cell-based. In outline:
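Growth at OD600 was monitored every 20 min for 16 h at 35±2 °C, with bacteria inoculated at ~5×10^(5) CFU/ml into Iso-Sensitest medium. Compounds were tested as 10-point twofold dilutions (e.g. 10–0.02 μM final). The 90% inhibitory concentration comes from the log-phase growth.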

Setting [1] is: ATCC17961, 90% growth inhibitory concentration, Acinetobacter baumannii ATCC17961, Iso-Sensitest broth, read-out: ATCC 17961 IC90.
[2] abbreviates: ATCC17961, read-out: ATCC 17961 IC90.

The source of these data is US20220396565A1 (Hoffmann-La Roche Inc., priority 2020, published 2022).

Each structure is given as a SMILES string. Where a name gives a salt, the structure may show the parent alone. Read-outs that look alike come from different tables or passages of the source.

Turning to `Cn1c(-c2ccc(OC(F)F)c(F)c2F)cnc1C(=O)Nc1ccc(C(=O)N2CCC(C(=O)N[C@@H]3CNC[C@H]3O)CC2)c(Cl)c1` [Example 96, 1-(2-chloro-4-(5-(4-(difluoromethoxy)-2,3-difluorophenyl)-1-methyl-1H-imidazole-2-carboxamido)benzoyl)-N-((3R,4R)-4-hydroxypyrrolidin-3-yl)piperidine-4-carboxamide formate], the IC90 under setting [1] worked out at 40 nM.

Consider `Cn1c(-c2ccc(OC(F)F)c(F)c2F)cnc1C(=O)Nc1ccc(C(=O)N2CCN(C(=O)C3CCN(C(=O)C4CNC4)CC3)CC2)c(Cl)c1` [Example 174, N-[4-[4-[1-(azetidine-3-carbonyl)piperidine-4-carbonyl]piperazine-1-carbonyl]-3-chloro-phenyl]-5-[4-(difluoromethoxy)-2,3-difluoro-phenyl]-1-methyl-imidazole-2-carboxamide formate], for which, under setting [1], the IC90 amounted to 70 nM.

Take `COc1ccc(-c2cnc(C(=O)Nc3ccc(C(=O)N4CCN(C(=O)CCCN)CC4)c(Cl)c3)n2C)c(F)c1F` [Example 121, N-[4-[4-(4-aminobutanoyl)piperazine-1-carbonyl]-3-chloro-phenyl]-5-(2,3-difluoro-4-methoxy-phenyl)-1-methyl-imidazole-2-carboxamide; formic acid]: the IC90 under setting [1] came out at 40 nM.

For the molecule `COc1ccc(-c2cnc(C(=O)Nc3ccc(C(=O)N4CCC(NC(=O)CCN(C)C)CC4)c(Cl)c3)n2C)c(F)c1F` [Example 101, N-[3-chloro-4-[4-[3-(dimethylamino)propanoylamino]piperidine-1-carbonyl]phenyl]-5-(2,3-difluoro-4-methoxy-phenyl)-1-methyl-imidazole-2-carboxamide formate], the 90% effect concentration (IC90) under setting [1] worked out at 50 nM.

With `COc1ccc(-c2cnc(C(=O)Nc3ccc(C(=O)N4CCN(C(=O)C[C@@H]5CCNC5)CC4)c(Cl)c3)n2C)c(C(F)F)c1F` [Example 261, N-[3-chloro-4-[4-[2-[(3S)-pyrrolidin-3-yl]acetyl]piperazine-1-carbonyl]phenyl]-5-[2-(difluoromethyl)-3-fluoro-4-methoxy-phenyl]-1-methyl-imidazole-2-carboxamide formate], under setting [1], the IC90 worked out at 80 nM.

Turning to `COc1ccc(-c2cnc(C(=O)Nc3ccc(C(=O)N4CCC(C(=O)NCCCC(=O)O)CC4)c(Cl)c3)n2C)c(F)c1F` [Example 68, 4-[[1-[2-chloro-4-[[5-(2,3-difluoro-4-methoxy-phenyl)-1-methyl-imidazole-2-carbonyl]amino]benzoyl]piperidine-4-carbonyl]amino]butanoic acid], under setting [1], the IC90 is 2100 nM.

In the case of `Cn1c(-c2ccc(OC(F)F)c(F)c2F)cnc1C(=O)Nc1ccc(C(=O)N2CCC(C(=O)N[C@H]3CNC[C@@H]3O)CC2)c(Cl)c1` [Example 93, 1-(2-chloro-4-(5-(4-(difluoromethoxy)-2,3-difluorophenyl)-1-methyl-1H-imidazole-2-carboxamido)benzoyl)-N-((3S,4S)-4-hydroxypyrrolidin-3-yl)piperidine-4-carboxamide formate], under setting [2], the concentration for an effect of 90% (IC90) stood at 40 nM.

Regarding `Cn1c(-c2ccc(OC(F)F)c(F)c2)cnc1C(=O)Nc1ccc(C(=O)N2CCN(C(=O)C[C@@H]3CCCN3)CC2)c(Cl)c1` [Example 181, N-[3-chloro-4-[4-[2-[(2S)-pyrrolidin-2-yl]acetyl]piperazine-1-carbonyl]phenyl]-5-[4-(difluoromethoxy)-3-fluoro-phenyl]-1-methyl-imidazole-2-carboxamide formate], the IC90 under setting [1] came out at 130 nM.

As for `COc1ccc(-c2cnc(C(=O)Nc3ccc(C(=O)N4CCN(C(=O)[C@@H]5CCNC5)CC4)c(Cl)c3)n2C)c(F)c1F` [Example 138, N-[3-chloro-4-[4-[(3R)-pyrrolidine-3-carbonyl]piperazine-1-carbonyl]phenyl]-5-(2,3-difluoro-4-methoxy-phenyl)-1-methyl-imidazole-2-carboxamide formate], the IC90 under setting [1] turned out to be 30 nM.

In the case of `CCc1cc(NC(=O)c2ncc(-c3ccc(OC)c(F)c3F)n2C)ccc1C(=O)N1CCC(C(=O)NCCOCCN(C)C)CC1` [Example 99, 1-[4-[[5-(2,3-difluoro-4-methoxy-phenyl)-1-methyl-imidazole-2-carbonyl]amino]-2-ethyl-benzoyl]-N-[2-[2-(dimethylamino)ethoxy]ethyl] piperidine-4-carboxamid], the IC90 under setting [1] came out at 480 nM.

For the molecule `COc1ccc(-c2cnc(C(=O)Nc3ccc(C(=O)N4CCN(C(=O)C5CC(CN)C5)CC4)c(Cl)c3)n2C)c(F)c1F` (centres unmarked) [Example 185, N-[4-[4-[3-(aminomethyl)cyclobutanecarbonyl]piperazine-1-carbonyl]-3-chloro-phenyl]-5-(2,3-difluoro-4-methoxy-phenyl)-1-methyl-imidazole-2-carboxamide formate], the IC90 under setting [1] stood at 60 nM.

As for `COc1ccc(-c2cnc(C(=O)Nc3ccc(C(=O)N4CC(C(=O)N5CCNCC5)C4)c(Cl)c3)n2C)c(F)c1F` [Example 69, N-[3-chloro-4-[3-(piperazine-1-carbonyl)azetidine-1-carbonyl]phenyl]-5-(2,3-difluoro-4-methoxy-phenyl)-1-methyl-imidazole-2-carboxamide formate], under setting [1], the IC90 amounted to 120 nM.

As to `COc1ccc(-c2cnc(C(=O)Nc3ccc(C(=O)N4CCC(C(=O)N[C@@H]5CNC[C@H]5O)CC4)c(Cl)c3)n2C)c(F)c1F` [Example 60, 1-[2-chloro-4-[[5-(2,3-difluoro-4-methoxy-phenyl)-1-methyl-imidazole-2-carbonyl]amino]benzoyl]-N-[(3R,4R)-4-hydroxypyrrolidin-3-yl]piperidine-4-carboxamide formate], the IC90 under setting [1] was 50 nM.

With `Cn1c(-c2ccc(OC(F)F)c(F)c2Cl)cnc1C(=O)Nc1ccc(C(=O)N2CCN(C(=O)C3(O)CCNCC3)CC2)c(Cl)c1` [Example 169, 5-[2-chloro-4-(difluoromethoxy)-3-fluoro-phenyl]-N-[3-chloro-4-[4-(4-hydroxypiperidine-4-carbonyl)piperazine-1-carbonyl]phenyl]-1-methyl-imidazole-2-carboxamide formate], the IC90 under setting [1] worked out at 30 nM.

Take `Cn1c(-c2ccc(OCC#N)c(F)c2F)cnc1C(=O)Nc1ccc(C(=O)N2CCN(C(=O)[C@@H]3CCNC[C@H]3O)CC2)c(Cl)c1` [Example 227, N-(3-chloro-4-(4-((3S,4R)-3-hydroxypiperidine-4-carbonyl)piperazine-1-carbonyl)phenyl)-5-(4-(cyanomethoxy)-2,3-difluorophenyl)-1-methyl 1H-imidazole-2-carboxamide (S)-2-hydroxypropanoate]: under setting [1], the 90% effect concentration (IC90) was found to be 90 nM.

For `COc1ccc(-c2cnc(C(=O)Nc3ccc(C(=O)N4CCN(C(=O)CCOCCN)CC4)c(Cl)c3)n2C)c(F)c1F` [Example 246, N-[4-[4-[3-(2-aminoethoxy)propanoyl]piperazine-1-carbonyl]-3-chloro-phenyl]-5-(2,3-difluoro-4-methoxy-phenyl)-1-methyl-imidazole-2-carboxamide formate], the IC90 under setting [1] was 100 nM.

On to `COc1ccc(-c2cnc(C(=O)Nc3ccc(C(=O)N4C[C@@H]5CN(C(=O)C6CCNCC6)C[C@@H]5C4)c(Cl)c3)n2C)c(F)c1F` [Example 186, N-[4-[(3aR,6aS)-5-(piperidine-4-carbonyl)-1,3,3a,4,6,6a-hexahydropyrrolo[3,4-c]pyrrole-2-carbonyl]-3-chloro-phenyl]-5-(2,3-difluoro-4-methoxy-phenyl)-1-methyl-idazole-2-carboxamide formate], for which the IC90 under setting [1] was found to be 100 nM.

Take `Cn1c(-c2ccc(OCF)c(F)c2F)cnc1C(=O)Nc1ccc(C(=O)N2CCC(C(=O)NC3CCNCC3)CC2)c(Cl)c1` [Example 89, 1-(2-chloro-4-(5-(2,3-difluoro-4-(fluoromethoxy)phenyl)-1-methyl-1H-imidazole-2-carboxamido)benzoyl)-N-(piperidin-4-yl)piperidine-4-carboxamide 2,2,2-trifluoroacetate]: the IC90 under setting [1] is 50 nM.

Take `COc1ccc(-c2cnc(C(=O)Nc3ccc(C(=O)N4CCN(CC(N)=O)CC4)c(Cl)c3)n2C)c(F)c1F` [Example 244, N-[4-[4-(2-amino-2-oxo-ethyl)piperazine-1-carbonyl]-3-chloro-phenyl]-5-(2,3-difluoro-4-methoxy-phenyl)-1-methyl-imidazole-2-carboxamide]: the IC90 under setting [1] was 100 nM.

Consider `CC[C@@]1(O)CN[C@H](C(=O)N2CCN(C(=O)c3ccc(NC(=O)c4ncc(-c5ccc(OC)c(F)c5F)n4C)cc3Cl)CC2)C1` [Example 233, N-[3-chloro-4-[4-[(2S,4S)-4-ethyl-4-hydroxy-pyrrolidine-2-carbonyl]piperazine-1-carbonyl]phenyl]-5-(2,3-difluoro-4-methoxy-phenyl)-1-methyl-imidazole-2-carboxamide formate], for which the concentration for an effect of 90% (IC90) under setting [1] was 130 nM.

For the molecule `Cn1c(-c2ccc(OCF)c(F)c2F)cnc1C(=O)Nc1ccc(C(=O)N2CCN(C(=O)[C@@H]3CCNC3)CC2)c(Cl)c1` [Example 155, N-[3-chloro-4-[4-[(3R)-pyrrolidine-3-carbonyl]piperazine-1-carbonyl]phenyl]-5-[2,3-difluoro-4-(fluoromethoxy)phenyl]-1-methyl-imidazole-2-carboxamide formate], under setting [1], the IC90 was determined as 40 nM.

Consider `COc1ccc(-c2cnc(C(=O)Nc3ccc(C(=O)N4CCN(C(=O)CN5CCCC5)CC4)c(Cl)c3)n2C)c(F)c1F` [Example 293, N-[3-Chloro-4-[4-(2-pyrrolidin-1-ylacetyl)piperazine-1-carbonyl]phenyl]-5-(2,3-difluoro-4-methoxy-phenyl)-1-methyl-imidazole-2-carboxamide formate], for which the IC90 under setting [2] was 30 nM.

For the molecule `COc1ccc(-c2cnc(C(=O)Nc3ccc(C(=O)N4CCN(C(=O)CN5CC(O)C5)CC4)c(Cl)c3)n2C)c(F)c1F` [Example 295, N-[3-chloro-4-[4-[2-(3-hydroxyazetidin-1-yl)acetyl]piperazine-1-carbonyl]phenyl]-5-(2,3-difluoro-4-methoxy-phenyl)-1-methyl-imidazole-2-carboxamide formate], the IC90 under setting [1] came to 110 nM.

Broadly, the IC90 is the concentration needed for an effect of 90%.
